# Tests used:
# [1] = Plasma protein binding in human assessed as unbound fraction at 2 uM incubated for 4 hrs by LC/MS/MS based balanced dialysis method
# Cytochrome P450 2C9 = Cytochrome P450 2C9 (Homo sapiens, UniProt P11712); experiment: Inhibition of CYP2C9 in human liver microsomes incubated in presence NADPH by LC-MS/MS analysis
# [2] = Efflux ratio of apparent permeability from basolateral to apical side over apical to basolateral side in human Caco-2 cells at 10 uM incubated for 120 mins by LC-MS/MS analysis
# [3] = Microsomal stability in human liver microsomes assessed as intrinsic clearance at 1 uM incubated for 60 mins in presence of NADPH regenerating system by LC-MS/MS analysis; type: ADME, Microsome; settings: read-out: CLH
# [4] = Microsomal stability in rat liver microsomes assessed as intrinsic clearance at 1 uM incubated for 60 mins in presence of NADPH regenerating system by LC-MS/MS analysis; type: ADME, Microsome; settings: read-out: CLH
# Cytochrome P450 3A4 = Cytochrome P450 3A4 (Homo sapiens, UniProt P08684); experiment: Inhibition of CYP3A4 in human liver microsomes incubated in presence NADPH by LC-MS/MS analysis
# Sequence of Cytochrome P450 3A4 (P08684 whole entry): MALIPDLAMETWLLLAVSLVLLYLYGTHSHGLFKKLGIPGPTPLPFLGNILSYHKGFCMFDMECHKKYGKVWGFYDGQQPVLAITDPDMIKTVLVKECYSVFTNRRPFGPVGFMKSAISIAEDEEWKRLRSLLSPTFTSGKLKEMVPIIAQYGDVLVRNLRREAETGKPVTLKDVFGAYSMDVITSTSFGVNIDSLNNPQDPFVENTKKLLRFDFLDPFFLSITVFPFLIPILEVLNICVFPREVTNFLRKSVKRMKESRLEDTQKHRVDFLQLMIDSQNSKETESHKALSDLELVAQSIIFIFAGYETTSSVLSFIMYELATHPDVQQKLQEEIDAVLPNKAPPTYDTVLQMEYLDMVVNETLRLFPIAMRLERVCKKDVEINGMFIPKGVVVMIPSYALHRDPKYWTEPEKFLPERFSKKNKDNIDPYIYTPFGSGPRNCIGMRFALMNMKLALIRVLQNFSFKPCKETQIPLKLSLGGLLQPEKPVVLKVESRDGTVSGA
# [5] = Metabolic stability in rat hepatocytes assessed as intrinsic clearance at 1 uM incubated for 90 mins by LC/MS/MS analysis; type: ADME, cell-based, Hepatocyte
# [6] = Apparent permeability across apical to basolateral side in human Caco-2 cells at 10 uM measured after 120 mins by LC-MS/MS analysis; settings: Caco-2
# Cytochrome P450 2B6 = molecular target: T1, Cytochrome P450 2B6 (Homo sapiens, UniProt P20813); experiment: Inhibition of CYP2B6 in human liver microsomes incubated in presence NADPH by LC-MS/MS analysis
# T1 sequence (P20813 whole entry): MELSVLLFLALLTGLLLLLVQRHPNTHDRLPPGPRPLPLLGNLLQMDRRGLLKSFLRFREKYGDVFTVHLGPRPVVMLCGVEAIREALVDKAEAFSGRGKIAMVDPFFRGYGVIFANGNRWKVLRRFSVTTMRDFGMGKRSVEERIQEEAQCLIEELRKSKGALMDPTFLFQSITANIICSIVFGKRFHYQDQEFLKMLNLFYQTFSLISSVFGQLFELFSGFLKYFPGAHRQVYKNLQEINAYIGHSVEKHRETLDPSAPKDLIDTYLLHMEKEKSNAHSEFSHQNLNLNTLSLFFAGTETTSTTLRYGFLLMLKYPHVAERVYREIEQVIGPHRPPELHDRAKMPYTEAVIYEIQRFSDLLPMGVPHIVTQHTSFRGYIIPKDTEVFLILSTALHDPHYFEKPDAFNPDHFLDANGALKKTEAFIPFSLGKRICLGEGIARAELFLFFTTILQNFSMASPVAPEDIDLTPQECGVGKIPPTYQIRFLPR
# [7] = Apparent permeability across basolateral to apical side in human Caco-2 cells at 10 uM measured after 120 mins by LC-MS/MS analysis
# Cytochrome P450 1A2 = molecular target: T2, Cytochrome P450 1A2 (Homo sapiens, UniProt P05177); experiment: Inhibition of CYP1A2 in human liver microsomes incubated in presence NADPH by LC-MS/MS analysis
# T2 sequence (P05177 whole entry): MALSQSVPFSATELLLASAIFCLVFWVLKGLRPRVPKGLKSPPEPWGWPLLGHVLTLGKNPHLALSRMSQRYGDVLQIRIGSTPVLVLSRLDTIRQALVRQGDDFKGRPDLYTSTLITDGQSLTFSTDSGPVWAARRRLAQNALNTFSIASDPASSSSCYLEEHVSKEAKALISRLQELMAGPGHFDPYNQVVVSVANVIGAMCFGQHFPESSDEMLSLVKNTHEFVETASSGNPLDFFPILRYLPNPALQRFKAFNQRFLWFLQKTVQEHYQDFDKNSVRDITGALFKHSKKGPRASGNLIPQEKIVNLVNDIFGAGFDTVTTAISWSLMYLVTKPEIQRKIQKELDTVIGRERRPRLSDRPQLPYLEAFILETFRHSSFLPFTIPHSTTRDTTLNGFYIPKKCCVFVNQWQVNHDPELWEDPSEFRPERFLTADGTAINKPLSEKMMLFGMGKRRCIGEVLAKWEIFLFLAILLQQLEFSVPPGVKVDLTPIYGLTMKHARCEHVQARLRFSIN
# [8] = molecular target: Non-receptor tyrosine-protein kinase TYK2 (Homo sapiens, UniProt P29597); experiment: Inhibition of recombinant human TYK2 using GGMEDIYFEFMGGKKK as substrate incubated for 40 mins in presence of Mg/ATP mixture by [gamma p33]-ATP based scintillation counting method
# Sequence of Non-receptor tyrosine-protein kinase TYK2 (P29597 whole entry): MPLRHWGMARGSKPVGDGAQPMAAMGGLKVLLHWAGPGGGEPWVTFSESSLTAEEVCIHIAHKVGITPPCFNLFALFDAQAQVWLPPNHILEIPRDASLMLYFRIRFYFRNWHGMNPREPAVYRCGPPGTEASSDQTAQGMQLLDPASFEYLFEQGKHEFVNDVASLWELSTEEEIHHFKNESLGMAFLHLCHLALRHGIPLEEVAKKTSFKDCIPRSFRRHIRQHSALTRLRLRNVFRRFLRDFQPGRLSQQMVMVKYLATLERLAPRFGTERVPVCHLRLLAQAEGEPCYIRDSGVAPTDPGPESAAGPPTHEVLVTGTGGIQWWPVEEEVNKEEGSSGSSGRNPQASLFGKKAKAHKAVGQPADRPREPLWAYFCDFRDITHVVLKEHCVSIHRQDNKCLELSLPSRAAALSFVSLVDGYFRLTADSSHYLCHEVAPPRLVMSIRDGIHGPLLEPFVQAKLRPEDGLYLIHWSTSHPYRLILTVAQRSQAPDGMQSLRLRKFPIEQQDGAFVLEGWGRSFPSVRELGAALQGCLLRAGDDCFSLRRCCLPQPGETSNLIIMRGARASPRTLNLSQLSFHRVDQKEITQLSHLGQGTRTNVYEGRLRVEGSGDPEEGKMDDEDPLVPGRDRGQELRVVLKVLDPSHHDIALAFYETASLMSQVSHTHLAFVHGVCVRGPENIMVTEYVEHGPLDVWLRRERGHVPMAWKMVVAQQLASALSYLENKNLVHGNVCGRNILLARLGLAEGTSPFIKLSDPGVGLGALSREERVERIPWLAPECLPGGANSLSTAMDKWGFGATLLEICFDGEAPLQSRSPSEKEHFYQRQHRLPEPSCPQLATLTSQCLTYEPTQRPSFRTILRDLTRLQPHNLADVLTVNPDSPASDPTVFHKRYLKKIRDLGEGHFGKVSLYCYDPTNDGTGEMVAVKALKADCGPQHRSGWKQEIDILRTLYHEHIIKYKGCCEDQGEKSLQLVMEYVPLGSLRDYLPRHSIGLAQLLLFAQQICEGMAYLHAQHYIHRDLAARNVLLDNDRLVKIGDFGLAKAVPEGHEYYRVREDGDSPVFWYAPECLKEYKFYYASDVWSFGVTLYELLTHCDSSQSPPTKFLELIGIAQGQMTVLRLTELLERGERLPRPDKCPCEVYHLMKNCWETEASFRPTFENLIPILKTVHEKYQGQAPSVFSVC
# Homo sapiens = species: Homo sapiens; experiment: Selectivity index, ratio of IC50 for inhibition of recombinant human JAK2 to IC50 for inhibition of recombinant human JAK1
# Sequence of Cytochrome P450 2C9 (P11712 whole entry): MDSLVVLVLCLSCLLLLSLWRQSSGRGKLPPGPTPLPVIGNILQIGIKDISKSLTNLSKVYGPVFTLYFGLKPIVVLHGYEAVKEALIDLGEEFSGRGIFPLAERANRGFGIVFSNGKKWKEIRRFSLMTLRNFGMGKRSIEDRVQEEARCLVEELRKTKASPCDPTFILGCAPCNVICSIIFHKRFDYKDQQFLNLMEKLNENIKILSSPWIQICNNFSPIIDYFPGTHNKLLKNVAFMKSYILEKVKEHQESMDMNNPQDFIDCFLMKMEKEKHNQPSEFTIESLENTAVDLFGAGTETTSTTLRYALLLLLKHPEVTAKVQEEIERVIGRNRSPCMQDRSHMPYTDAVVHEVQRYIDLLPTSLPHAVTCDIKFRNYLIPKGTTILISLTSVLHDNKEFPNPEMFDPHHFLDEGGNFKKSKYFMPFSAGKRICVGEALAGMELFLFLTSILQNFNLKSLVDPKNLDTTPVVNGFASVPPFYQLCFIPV
IC50 (Cytochrome P450 2C9),"efflux ratio at 2 h, 10 µM [2]",IC50 (Cytochrome P450 3A4),"Papp A→B at 2 h, 10 µM [6]",IC50 (Cytochrome P450 2B6),"Papp B→A at 2 h, 10 µM [7]",IC50 (Cytochrome P450 1A2),IC50 [8],Ratio IC50 (Homo sapiens),Structure (SMILES),"fraction unbound at 4 h, 2 µM [1]",microsomal CLint at 1 µM [3],microsomal CLint at 1 µM [4],CLH [5]
46.8 µM,6.77,> 100 µM,4.29 ×10⁻⁶ cm/s,> 100 µM,29.1 ×10⁻⁶ cm/s,> 100 µM,0.026 µM,13.3,O=C(Nc1nc2cccc(C3CCC4(CC3)CCN(C(=O)[C@@H]3CC3(F)F)CC4)n2n1)C1CC1,0.056,< 9.6 µL/min/mg,< 9.6 µL/min/mg,< 6.4 µL/min/mg
49 µM,19.5,> 100 µM,1.6 ×10⁻⁶ cm/s,> 100 µM,31.2 ×10⁻⁶ cm/s,> 100 µM,0.067 µM,10.5,O=C(Nc1nc2cccc(C3CCC4(CC3)CCN(C(=O)[C@@H]3CC3(F)F)C4)n2n1)C1CC1 (stereo partly drawn),0.088,11.3 µL/min/mg,15.7 µL/min/mg,25.6 µL/min/mg
,,,,,,,,,O=C(Nc1nc2cccc(C3CCC4(CC3)CN(C(=O)[C@@H]3CC3(F)F)C4)n2n1)C1CC1,0.176,< 9.6 µL/min/mg,< 9.6 µL/min/mg,< 6.4 µL/min/mg

Structure (SMILES),IC50 (Cytochrome P450 2C9),"efflux ratio at 2 h, 10 µM [2]",IC50 (Cytochrome P450 3A4),"Papp A→B at 2 h, 10 µM [6]",IC50 (Cytochrome P450 2B6),"Papp B→A at 2 h, 10 µM [7]",IC50 (Cytochrome P450 1A2),IC50 [8],Ratio IC50 (Homo sapiens),"fraction unbound at 4 h, 2 µM [1]",microsomal CLint at 1 µM [3],microsomal CLint at 1 µM [4],CLH [5]
O=C(Nc1nc2cccc([C@H]3CC[C@@H](NC(=O)[C@@H]4CC4(F)F)CC3)n2n1)C1CC1,> 100 µM,10.5,> 100 µM,2.78 ×10⁻⁶ cm/s,> 100 µM,29.2 ×10⁻⁶ cm/s,8.21 µM,0.024 µM,11,0.085,< 9.6 µL/min/mg,16.9 µL/min/mg,< 10.8 µL/min/mg
